Results on 21 compounds are retold here after ChEMBL document CHEMBL3611972, “Leishmanicidal, antiproteolytic, and mutagenic evaluation of alkyltriazoles and alkylphosphocholines” (Eur J Med Chem, 2015).

The subject of data set [1] is Leishmania amazonensis. As to the kind of experiment: microbe, parasite or virus in culture. The format is functional, organism-based. Conditions: MHOM/BR/71973/M2269, 72 h.
Description: Leishmanicidal activity against Leishmania amazonensis MHOM/BR/71973/M2269 promastigotes assessed as reduction in surviving parasites incubated for 72 hrs by Neubauer's chamber based cell counting method
Data set [2] has as its system Leishmania amazonensis. The data set is described as follows: Leishmanicidal activity against Leishmania amazonensis MHOM/BR/71973/M2269 amastigotes infected in mouse peritoneal macrophages assessed as reduction in surviving parasites incubated for 72 hrs by Giemsa staining based optical light microscopy. In kind it is functional, organism-based. Conditions: MHOM/BR/71973/M2269, 72 h.

Data set [3] can be described thus: Cytotoxicity against mouse peritoneal macrophages assessed as reduction in cell viability incubated for 72 hrs by MTT assay. The format is cell-based, Peritoneal macrophage cell. In general terms: Tetrazolium dyes change colour on reduction, which living cells bring about.
The nature of data set [4]: Selectivity index, ratio of CC50 for mouse peritoneal macrophages to IC50 for Leishmania amazonensis MHOM/BR/71973/M2269 amastigotes infected in mouse peritoneal macrophages. The format is functional.
The nature of data set [5]: Inhibition of Leishmania mexicana cysteine protease r-CPB2.8 using Z-FR-AMC fluorogenic substrate by spectrofluorometry.
Data set [6] concerns Salmonella typhimurium. As to the kind of experiment: Mutagenicity in Salmonella typhimurium TA102 assessed as mutagenicity index at 5 ug/plate incubated for 90 mins at 37 degC in presence of liver S9 fractions by Ames test relative to untreated control. To be noted: salmonella enterica subsp. enterica serovar typhimurium, s9, 1.5 h. In kind it is toxicity, organism-based. Background: The Ames test uses bacterial strains that need an amino acid and regain growth without it when mutated back.

The subject of data set [7] is Salmonella typhimurium. As to the kind of experiment: Mutagenicity in Salmonella typhimurium TA102 assessed as number of revertants at 5 ug/plate incubated for 90 mins at 37 degC in presence of liver S9 fractions by Ames test relative to control. To be noted: salmonella enterica subsp. enterica serovar typhimurium, s9, 1.5 h.
Data set [8] relates to Salmonella typhimurium. As to the kind of experiment: Mutagenicity in Salmonella typhimurium TA100 assessed as number of revertants at 5 ug/plate incubated for 90 mins at 37 degC in presence of liver S9 fractions by Ames test relative to untreated control. To be noted: salmonella enterica subsp. enterica serovar typhimurium, s9, 1.5 h.
In data set [9] the test system is Salmonella typhimurium. The data set is described as follows: Mutagenicity in Salmonella typhimurium TA98 assessed as mutagenicity index at 10 ug/plate incubated for 90 mins at 37 degC in absence of liver S9 fractions by Ames test relative to control. In kind it is toxicity, organism-based. To be noted: salmonella enterica subsp. enterica serovar typhimurium, 1.5 h.

The subject of data set [10] is Salmonella typhimurium. The data set is described as follows: Mutagenicity in Salmonella typhimurium TA98 assessed as mutagenicity index at 10 ug/plate incubated for 90 mins at 37 degC in absence of liver S9 fractions by Ames test relative to untreated control. In kind it is toxicity, organism-based. Conditions: salmonella enterica subsp. enterica serovar typhimurium, 1.5 h.

On to `C[N+](C)(C)CCOP(=O)([O-])OCCCCCCCCCN=[N+]=[N-]`, for which, in the data set with Leishmania amazonensis [1], the IC50 amounted to 136 µM.
For `CCOC(=O)c1cn(CCCCCCCCCCCCI)nn1`, the values for the IC50 (with Leishmania amazonensis [1]; in the data set with Leishmania amazonensis [2]; in data set [5]) were 27.9 µM, 17.7 µM and 6.08 µM, respectively. Moreover, the CC50 at 72 h in data set [3] came out at 93.4 µM. The “Ratio CC50/IC50” value in data set [4] amounted to 5.28.
Regarding `Nc1ccc2cc3ccccc3cc2c1` [2-AMINOANTHRACENE], the Revertants in the data set with Salmonella typhimurium [6] is 2510 revertants/plate; with Salmonella typhimurium [7], 2510 revertants/plate; with Salmonella typhimurium [8] it was 1020 revertants/plate.
Regarding `CS(=O)(=O)OCCCCCCCCCCCCn1cc(CCCOS(C)(=O)=O)nn1`, the values for the IC50 (in the data set with Leishmania amazonensis [1]; in the data set with Leishmania amazonensis [2]; in [5]) were 4.01 µM, 70.2 µM and 4.53 µM, respectively. Besides, the CC50 at 72 h in data set [3] was 156 µM. In data set [4], the “Ratio CC50/IC50” value is 2.14.
Turning to `OCCCc1cn(CCCCCCCCCF)nn1`, the midpoint of inhibition in the data set on Leishmania amazonensis [1], the IC50, lay at 81.7 µM.
Still for that read-out and setting: the value for `CS(=O)(=O)OCCCCCCCCCCCCn1cc(CCC(=O)O)nn1` was 225 µM.
In the case of `Nc1ccc([N+](=O)[O-])cc1N`, the Activity_index in the data set with Salmonella typhimurium [9] and with Salmonella typhimurium [10] was 1350 in each case.
As to `OCCCc1cn(CCCCCCCCCCCCI)nn1`, the results for the 50% inhibitory concentration (IC50) (in the data set on Leishmania amazonensis [1]; in the data set with Leishmania amazonensis [2]; in data set [5]) were 19.3 µM, 23.7 µM and 1.22 µM, respectively. The CC50 at 72 h in data set [3] was 66.2 µM. Moreover, in data set [4], the “Ratio CC50/IC50” value is listed as 2.79.
`CCOC(=O)c1cn(CCCCCCCCCCCCOS(C)(=O)=O)nn1` showed an IC50 in the data set with Leishmania amazonensis [1] of 75.9 µM.
In the data set on Leishmania amazonensis [1], `CS(=O)(=O)OCCCCCCCCCn1cc(CCCO)nn1` yielded an IC50 of 82.2 µM.
Still for that read-out and setting: the value for `CCOC(=O)c1cn(CCCCCCCCCI)nn1` was 47.6 µM; that for `CS(=O)(=O)OCCCCCCCCCCCCn1cc(CO)nn1` was 51.7 µM.
With `C[C@@H]1[C@H](O)[C@@H](C)/C=C/C=C/C=C/C=C/C=C/C=C/C=C/[C@H](O[C@@H]2O[C@H](C)[C@@H](O)[C@H](N)[C@@H]2O)C[C@@H]2O[C@](O)(C[C@@H](O)C[C@@H](O)[C@H](O)CC[C@@H](O)C[C@@H](O)CC(=O)O[C@H]1C)C[C@H](O)[C@H]2C(=O)O` [AMPHOTERICIN B], the values for the IC50 in the data set on Leishmania amazonensis [1] and in the data set with Leishmania amazonensis [2] were 4.7 µM and 6.1 µM, respectively. In addition, in [4], the “Ratio CC50/IC50” value is 4.44.
On to `CCOC(=O)c1cn(CCCCCCOS(C)(=O)=O)nn1`, for which the midpoint of inhibition with Leishmania amazonensis [1], the IC50, lay at 219 µM.
For `CS(=O)(=O)OCCCCCCn1cc(CCCO)nn1`, in the data set with Leishmania amazonensis [1], the IC50 turned out to be 229 µM.
Regarding `N=C(N)c1ccc(OCCCCCOc2ccc(C(=N)N)cc2)cc1` [PENTAMIDINE], the 50% inhibitory concentration (IC50) in the data set with Leishmania amazonensis [2] was 6.62 µM. The “Ratio CC50/IC50” value in data set [4] worked out at 1.69.
On to `C[N+](C)(C)CCOP(=O)([O-])OCCCCCCCCCCCCN=[N+]=[N-]`, for which the half-inhibitory concentration (IC50) in the data set with Leishmania amazonensis [1] was found to be 25.6 µM; in the data set on Leishmania amazonensis [2] it was 3.81 µM; in [5], 8.35 µM. Also, the CC50 at 72 h in [3] was found to be 129 µM. Further, the “Ratio CC50/IC50” value in [4] was found to be 33.76.
`CC(C)C[C@H](NC(=O)[C@H]1O[C@@H]1C(=O)O)C(=O)NCCCCN=C(N)N` [E-64] came in with an IC50 in data set [5] of 0.125 µM.
For the compound `CC(=O)OCCCc1cn(CCCCCCCCCCCCOS(C)(=O)=O)nn1`, the IC50 with Leishmania amazonensis [1] was 30.3 µM; with Leishmania amazonensis [2], 56.1 µM; in data set [5], 1.02 µM. Moreover, the cytotoxic concentration (CC50) at 72 h in data set [3] was determined as 26.6 µM.
Turning to `OCCCc1cn(CCCCCCCCCI)nn1`, the IC50 in the data set with Leishmania amazonensis [1] worked out at 67.7 µM.
For the compound `OCCCc1cn(CCCCCCCCCCCCF)nn1`, the IC50 with Leishmania amazonensis [1] was 37.1 µM; with Leishmania amazonensis [2], 15.1 µM; in data set [5], 2.26 µM. Further, in data set [3], the CC50 at 72 h was determined as 163 µM. Further, the “Ratio CC50/IC50” value in [4] is recorded as 9.83.

For orientation: IC50 means the concentration at which inhibition is half-maximal. Broadly, the CC50 is the concentration giving 50% cytotoxicity.
